Test results: patent US20260297042A1, “BIARYLAMIDE DERIVATIVES AND THEIR USE AS PKMYT1 INHIBITORS” (CANCER RESEARCH TECHNOLOGY LIMITED, priority 2023, published 2026)
Counter-ions that a name gives are not always drawn.

Tests used:
Human PKMYT1 = biological target: T1, Human PKMYT1 (Homo sapiens, UniProt Q99640); test: PKMYT1 biochemical ADP-Glo enzymatic assay; details: ADP-Glo
T1 construct: Human PKMYT1 75-362 was cloned as a TEV cleavable 6xHis fusion; 6xHis (TEV cleavable) (cleaved yes); made in house; host or cells: bacterial cells
T1 sequence (Q99640 75-362): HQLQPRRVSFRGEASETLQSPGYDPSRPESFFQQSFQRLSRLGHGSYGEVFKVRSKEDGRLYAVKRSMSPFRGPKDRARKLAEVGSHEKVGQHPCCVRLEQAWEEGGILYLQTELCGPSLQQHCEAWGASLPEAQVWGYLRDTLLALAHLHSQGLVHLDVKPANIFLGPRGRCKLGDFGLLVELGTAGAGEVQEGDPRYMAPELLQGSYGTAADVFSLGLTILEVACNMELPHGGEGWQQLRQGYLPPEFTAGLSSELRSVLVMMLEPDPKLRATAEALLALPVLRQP
Outline: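 IC50 values come from 10-point 3-fold series, with replicates required within 3-fold and r2 >0.9. ADP formed by PKMYT1 intrinsic ATPase (500 uM ATP, 60 min, 26° C.) was quantified by ADP-Glo luminescence. The enzyme was the TEV-cleaved kinase domain 75-362 at 15 nM, in HEPES pH 7.5 buffer.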

WEE1 = biological target: T2, WEE1 (Homo sapiens, UniProt P30291); test: Selectivity versus WEE1 assay (ADP-Glo enzymatic assay); format: biochemical; details: for IC50: ADP-Glo; for PKMYT1 vs. WEE1 selectivity: fold difference in selectivity for PKMYT1 over WEE1
T2 construct: purchased Thermo Fisher PR7373A
T2 sequence (P30291 whole entry): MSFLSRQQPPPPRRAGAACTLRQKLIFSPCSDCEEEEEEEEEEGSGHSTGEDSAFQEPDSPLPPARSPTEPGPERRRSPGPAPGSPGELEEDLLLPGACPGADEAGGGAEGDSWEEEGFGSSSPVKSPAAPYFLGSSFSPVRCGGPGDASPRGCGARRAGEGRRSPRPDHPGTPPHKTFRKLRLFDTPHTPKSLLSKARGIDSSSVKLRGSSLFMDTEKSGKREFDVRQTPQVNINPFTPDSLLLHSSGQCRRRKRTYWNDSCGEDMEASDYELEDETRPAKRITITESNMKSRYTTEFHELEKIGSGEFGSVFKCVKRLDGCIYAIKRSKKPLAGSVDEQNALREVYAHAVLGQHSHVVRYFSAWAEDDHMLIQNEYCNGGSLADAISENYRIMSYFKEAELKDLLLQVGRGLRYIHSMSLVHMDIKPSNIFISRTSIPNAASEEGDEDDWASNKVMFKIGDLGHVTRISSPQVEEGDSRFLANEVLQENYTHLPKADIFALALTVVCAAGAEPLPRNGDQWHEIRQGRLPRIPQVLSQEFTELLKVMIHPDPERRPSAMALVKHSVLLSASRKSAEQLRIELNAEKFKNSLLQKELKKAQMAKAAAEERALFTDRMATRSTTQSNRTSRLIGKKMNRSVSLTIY
Outline: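 ADP-Glo luminescent read-out after a 60-min, 26 °C kinase reaction of 15 nM WEE1 with 30 µM ATP, in HEPES pH 7.5 buffer containing MgCl2, EGTA, Brij-35 and 1% DMSO. IC50 accepted only when replicate values agree within 3-fold and curve fit r2 exceeds 0.9.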

OVCAR 3 cells = test: Cancer cell line proliferation assay, ATP-based cell viability (Cell Titre Glow), OVCAR 3 (CCNE1-amplified); details: KYSE30 (normal CCNE1) GI50 vs. OVCAR 3 (CCNE1-amplified) GI50
Protocol: (§1) Cancer cell lines with either normal (KYSE-30) or amplified CCNE1 expression (OVCAR 3 —ovarian cancer) were evaluated for their sensitivity to PKMYT1 inhibitors using Cell Titre Glow assay (Promega G7573) as endpoint to assess cell proliferation. The luminescence signal was read on a PHERAStar FS microplate reader (BMG Labtech). Data analysis was performed using Microsoft Excel® and Gl50 (concentration that achieves 50% cell growth proliferation inhibition) estimates generated with GraphPad Prism v9.

KYSE-30 cells = test: Cancer cell line proliferation assay, ATP-based cell viability (Cell Titre Glow), KYSE-30 (normal CCNE1); details: Homo sapiens, KYSE-30 cells (normal CCNE1), concentration that achieves 50% cell growth proliferation inhibition, read-out: KYSE30 Gl50
Protocol: as §1

[1] = 15 nM PKMYT1 kinase domain, 500 µM ATP, 60 minutes at 26° C., banded
[2] = 15 nM WEE1, 60 minutes at 26° C., banded
[3] = banded, ">N" = at least in this band but could be higher
[4] = PKMYT1 kinase domain 15 nM, banded values

Row | Structure (SMILES) | IC50 (Human PKMYT1; [1]) [nM] | IC50 (WEE1; [2]) [nM] | PKMYT1 vs. WEE1 selectivity (WEE1; [3]) | IC50 (Human PKMYT1; [4]) [nM] | IC50 (WEE1; WEE1 15 nM, banded values) [nM] | PKMYT1 vs. WEE1 selectivity (WEE1; banded) | Selectivity ratio KYSE30 Gl50 vs. OVCAR3 Gl50 (OVCAR 3 cells) | GI50 (KYSE-30 cells) [nM]
1 | Cc1ccc(O)c(C)c1NC(=O)c1cnc(Nc2cccc(-c3ccc(F)cc3)n2)s1 [BAA-306, 2-((6-(4-fluorophenyl)pyridin-2-yl)amino)-N-(3-hydroxy-2,6-dimethylphenyl)thiazole-5-carboxamide] | 50 to 1000 | > 11000 | X (100-<1000 fold) | – | – | – | X (3-20 fold) | 500 to 5000
2 | Cc1ccc(O)c(C)c1NC(=O)c1cnc(Nc2ncnn3cccc23)s1 [BAA-450, N-(3-hydroxy-2,6-dimethylphenyl)-2-(pyrrolo[2,1-f][1,2,4]triazin-4-ylamino)thiazole-5-carboxamide] | – | – | – | < 50 | 1000 to 11000 | X (100-<1000 fold) | X (3-20 fold) | > 5000
3 | Cc1c(O)cc(Br)c(C)c1NC(=O)c1cnc(Nc2nn(C3CCS(=O)(=O)C3)c(C)c2Br)s1 (centres unmarked) [BAA-557, 2-((4-Bromo-1-(1,1-dioxidotetrahydrothiophen-3-yl)-5-methyl-1H-pyrazol-3-yl)amino)-N-(3-bromo-5-hydroxy-2.6-dimethylphenyl)thiazole-5-carboxamide] | – | – | – | 1000 to 11000 | – | – | Y (>20 fold) | > 5000
4 | Cc1ccc(O)c(C)c1NC(=O)c1cnc(Nc2cccc3c2OCC3)s1 [BAA-530, 2-((2,3-dihydrobenzofuran-7-yl)amino)-N-(3-hydroxy-2,6-dimethylphenyl)thiazole-5-carboxamide. TFA salt] | – | – | – | 50 to 1000 | > 11000 | X (100-<1000 fold) | – | –
5 | Cc1ccc(O)c(C)c1NC(=O)c1cnc(Nc2cc(C(F)(F)F)nc(OCC(F)(F)F)n2)s1 [BAA-318, N-(3-hydroxy-2,6-dimethylphenyl)-2-((2-(2,2,2-trifluoroethoxy)-6-(trifluoromethyl)pyrimidin-4-yl)amino)thiazole-5-carboxamide] | 50 to 1000 | > 11000 | Y (1000-5000 fold) | – | – | – | – | –
6 | Cc1ccc(O)c(C)c1NC(=O)c1cnc(Nc2ccn(CCCO)n2)s1 [BAA-002, N-(3-Hydroxy-2,6-dimethyl-phenyl)-2-[[1-(3-hydroxypropyl)pyrazol-3-yl]amino]thiazole-5-carboxamide] | < 50 | 1000 to 11000 | W (10-<100 fold) | – | – | – | – | –
7 | Cc1cn(-c2cncn2C)nc1Nc1ncc(C(=O)Nc2c(C)ccc(O)c2C)s1 [BAA-387, N-(3-hydroxy-2,6-dimethylphenyl)-2-((4-methyl-1-(1-methyl-1H-imidazol-5-yl)-1H-pyrazol-3-yl)amino)thiazole-5-carboxamide] | < 50 | 1000 to 11000 | X (100-<1000 fold) | – | – | – | – | –
8 | Cc1ccc(O)c(C)c1NC(=O)c1cnc(Nc2cccc3c2OCCO3)s1 [BAA-529, 2-((2,3-dihydrobenzo[b][1,4]dioxin-5-yl)amino)-N-(3-hydroxy-2,6-dimethylphenyl)thiazole-5-carboxamide. TFA salt] | – | – | – | 50 to 1000 | > 11000 | X (100-<1000 fold) | – | –
9 | Cc1ccc(O)c(C)c1NC(=O)c1cnc(Nc2ccn([C@@H]3CCN(C(=O)NCc4ccccc4)C3)n2)s1 [BAA-108, 2-[[1-[(3R)-1-(Benzylcarbamoyl)pyrrolidin-3-yl]pyrazol-3-yl]amino]-N-(3-hydroxy-2,6-dimethyl-phenyl)thiazole-5-carboxamide] | < 50 | > 11000 | >Y (1000-5000 fold) | – | – | – | – | –
10 | Cc1cc(C)c(NC(=O)c2cnc(Nc3ccn(CC(=O)N4CCCC4)n3)s2)c(C)c1O [BAA-516, N-(3-hydroxy-2,4,6-trimethylphenyl)-2-((1-(2-oxo-2-(pyrrolidin-1-yl)ethyl)-1H-pyrazol-3-yl)amino)thiazole-5-carboxamide] | – | – | – | 50 to 1000 | > 11000 | X (100-<1000 fold) | – | –
11 | Cc1ccc(O)c(C)c1NC(=O)c1cnc(Nc2nccc3ccncc23)s1 [BAA-602, 2-((2,7-naphthyridin-1-yl)amino)-N-(3-hydroxy-2,6-dimethylphenyl)thiazole-5-carboxamide] | – | – | – | 50 to 1000 | > 11000 | X (100-<1000 fold) | – | –
12 | Cc1cn(Cc2ncco2)nc1Nc1ncc(C(=O)Nc2c(C)ccc(O)c2C)s1 [BAA-366, N-(3-hydroxy-2,6-dimethylphenyl)-2-((4-methyl-1-(oxazol-2-ylmethyl)-1H-pyrazol-3-yl)amino) thiazole-5-carboxamide] | < 50 | 1000 to 11000 | X (100-<1000 fold) | – | – | – | – | –

Now from value to compound, other results behind:

Row | IC50 (Human PKMYT1; [1]) [nM] | IC50 (WEE1; [2]) [nM] | PKMYT1 vs. WEE1 selectivity (WEE1; [3]) | IC50 (Human PKMYT1; [4]) [nM] | IC50 (WEE1; WEE1 15 nM, banded values) [nM] | PKMYT1 vs. WEE1 selectivity (WEE1; banded) | Structure (SMILES) | Selectivity ratio KYSE30 Gl50 vs. OVCAR3 Gl50 (OVCAR 3 cells) | GI50 (KYSE-30 cells) [nM]
13 | – | – | – | < 50 | 1000 to 11000 | X (100-<1000 fold) | COc1cccc(Nc2ncc(C(=O)Nc3c(C)ccc(O)c3C)s2)n1 [BAA-416, N-(3-hydroxy-2,6-dimethylphenyl)-2-((6-methoxypyridin-2-yl)amino)thiazole-5-carboxamide] | Y (>20 fold) | 500 to 5000
14 | – | – | – | < 50 | 1000 to 11000 | X (100-<1000 fold) | CCN(C)C(=O)Cn1cc(C)c(Nc2ncc(C(=O)Nc3c(C)ccc(O)c3C)s2)n1 [BAA-489, 2-((1-(2-(ethyl(methyl)amino)-2-oxoethyl)-4-methyl-1H-pyrazol-3-yl)amino)-N-(3-hydroxy-2,6-dimethylphenyl)thiazole-5-carboxamide] | Y (>20 fold) | > 5000
15 | 50 to 1000 | > 11000 | Y (1000-5000 fold) | – | – | – | Cc1ccc(O)c(C)c1NC(=O)c1cnc(NCc2ccccc2)s1 [BAA-344, 2-(benzylamino)-N-(3-hydroxy-2,6-dimethylphenyl) thiazole-5-carboxamide] | – | –
16 | 50 to 1000 | > 11000 | >X (100-<1000 fold) | – | – | – | Cc1ccc(O)c(C)c1NC(=O)c1cnc(NCC2CCN(C(=O)Cc3ccc(Cl)cc3)CC2)s1 [BAA-214, 2-[[1-[2-(4-chlorophenyl)acetyl]-4-piperidyl]methylamino]-N-(3-hydroxy-2,6-dimethyl-phenyl)thiazole-5-carboxamide] | – | –
17 | – | – | – | < 50 | 1000 to 11000 | X (100-<1000 fold) | Cc1cn(CC(=O)N(C)CCS(C)(=O)=O)nc1Nc1ncc(C(=O)Nc2c(C)ccc(O)c2C)s1 [BAA-522, N-(3-hydroxy-2,6-dimethylphenyl)-2-((4-methyl-1-(2-(methyl(2-(methylsulfonyl)ethyl)amino)-2-oxoethyl)-1H-pyrazol-3-yl)amino)thiazole-5-carboxamide] | – | –
18 | 50 to 1000 | > 11000 | >Y (1000-5000 fold) | – | – | – | Cc1ccc(O)c(C)c1NC(=O)c1cnc(Nc2ccn([C@@H]3CCN(C(=O)Cc4ccc(N(C)C)cc4)C3)n2)s1 [BAA-105, 2-[[1-[(3R)-1-[2-[4-(dimethylamino)phenyl]acetyl]pyrrolidin-3-yl]pyrazol-3-yl]amino]-N-(3-hydroxy-2,6-dimethyl-phenyl) thiazole-5-carboxamide] | – | –
19 | – | – | – | 50 to 1000 | > 11000 | X (100-<1000 fold) | Cc1ccc(O)c(C)c1NC(=O)c1cnc(Nc2cccc3cccnc23)s1 [BAA-487, N-(3-hydroxy-2,6-dimethylphenyl)-2-(quinolin-8-ylamino) thiazole-5-carboxamide] | – | –
